Results from a melting point compilation (Tetko et al.).

melting point [°C]	SMILES
182 to 184	O=c1ccc(S(=O)(=O)c2ccccc2)n[nH]1
130 to 135	CCOC(=O)CN(C(=O)CCl)c1ccccc1
107 to 108	Nc1cc(F)c(F)cc1[N+](=O)[O-]
177 to 179	COC(=O)Nc1ccccc1C(=O)O
172 to 174	O=C(O)c1cc(-c2ccccc2)c(N2CCOCC2)s1
160 to 162	NC(=S)CN1C(=O)c2ccccc2S1(=O)=O
205 to 209	CN(C)S(=O)(=O)c1ccc2c(c1)nc(CCC(=O)O)n2C
190 to 200	O=C(O)CNC(=O)c1ccc(N2CCCC2=O)cc1
140 to 142	CN(C)c1ccc([N+](=O)[O-])c(O)c1
144 to 146	Cc1nn(C)c2ncc(SC(=O)N(C)C)cc12
177 to 179	C#CCN1CCCCC1C(=O)O (stereo not given)
80 to 82	N#CCC(=O)c1ccc(OC(F)F)cc1
139 to 141	Cc1c(F)ccc2c1NC(=O)C2=O
169 to 171	O=C1C=CC(=O)N1C1CCOCC1
136 to 138	Cc1ccc(CN2CCSCC2)cc1N
179 to 181	Nc1ccccc1NC(=O)c1ccncc1
49 to 51	CCc1cc(N)on1
107 to 109	CCC(CO)NC(=O)Cc1ccc(N)cc1 (stereo not given)
129 to 131	Cc1ccccc1C(=O)NC1CCNCC1
158 to 160	O=C(NC1CCN(Cc2ccccc2)CC1)c1ccco1
87 to 89	CC(C)C[C@H](NC(=O)OC(C)(C)C)C(=O)O
105 to 107	Cc1ccc(S(=O)(=O)C2(C(=O)O)CCC2)cc1
120 to 123	OCCc1ccc(O)c(-n2nc3ccccc3n2)c1
117 to 121	COC(=O)c1cc(Cl)c(O)c(Cl)c1

melting point [°C]	SMILES
173 to 175	Clc1ncnc2ccc(I)cc12
134 to 136	CCOC(=O)C(O)c1nccn1Cc1ccccc1 (stereo not given)
113 to 115	CC(C)(C)NC(=O)Cc1ccc(N)cc1
140 to 142	CS(=O)(=O)OCCN1C(=O)c2ccccc2C1=O
97 to 99	Cc1nccn1-c1cccc(F)n1
143 to 145	COC(=O)Cc1cc(O)n[nH]1
133 to 135	OCCNc1ccc(Cl)nn1
139 to 141	Cc1ccc(F)c(C(=O)O)c1N
225 to 227	COc1ccc(C(=O)Nc2cc(F)ccc2C(=O)O)cc1
119 to 121	Nc1ccc(CN2CCOCC2)cn1
158 to 160	O=C(O)c1cccc(-c2noc(C3CC3)n2)c1
54 to 56	COC(=O)c1csc(S(=O)(=O)Cl)c1
141 to 143	Clc1ccc2c(n1)NCC2
142 to 144	Clc1cc(Cl)nc(-c2ccccn2)n1
84 to 86	O=C(CCCc1ccc(Br)cc1)c1ccccc1
181 to 183	CN(C)S(=O)(=O)c1ccc(Cl)c(C(=O)O)c1
62 to 64	CC(N)c1ccc(N2CCCC2=O)cc1 (stereo not given)
101 to 103	COC(=O)c1cccc(-c2ncno2)c1
93 to 95	NCc1cccc(N)n1
215 to 217	NC(C(=O)O)c1ccc(Cl)cc1Cl (stereo not given)
166 to 168	O=Cc1cnc2ccnn2c1
62 to 64	C=CCNC(=O)c1cccc(S(=O)(=O)Cl)c1
219 to 221	Cc1ccc(Nc2nnc(S)s2)cc1
282 to 284	O=c1ccn2ncnc2[nH]1

melting point [°C]	SMILES
195 to 197	Cc1cc(C)c2c(=O)[nH]sc2n1
149 to 151	COC(=O)c1sc2nc(C)nc(Cl)c2c1C
117 to 119	CC(=O)c1cccc(OCCOc2cccc(C(C)=O)c2)c1
49 to 51	Nc1ccccc1OCC(F)(F)F
263 to 265	Cc1nc(-c2ccc(Cl)nc2)[nH]c(=O)c1C
49 to 51	COc1ccccc1C(=O)c1ccccn1
173 to 175	O=C(O)Cc1ccc(NC(=O)C2CCCC2)cc1
135 to 137	Cc1ccsc1C(=O)Nc1ccc2c(c1)CCCN2
153 to 155	NNC(=O)Nc1ccc(Cl)cc1Cl
132 to 134	CC1=NN(C)C(=O)C1C (stereo not given)
129 to 131	CCC(Nc1c([N+](=O)[O-])c(C)nn1C)C(=O)O (stereo not given)
35 to 37	N#CCc1ccc(F)c(Br)c1
229 to 231	O=C(O)c1ccc(CN2C(=O)CCC2=O)cc1
155 to 157	C=CC(=O)Nc1cc(F)cc(F)c1
67 to 69	COc1cccc(CC2(C(=O)O)CC3CCC2C3)c1 (stereo not given)
142 to 144	CCOC(=O)/C(C#N)=C\Nc1ccc(F)c(F)c1F
275 to 277	NS(=O)(=O)c1cc(C(=O)O)ccc1Br
121 to 123	Nc1cc(-c2cccs2)nn1-c1ccccc1
166 to 168	N#Cc1ccc(N2CCN(c3ccc(F)cc3)CC2)nc1
193 to 195	CCCS(=O)(=O)c1ccc(C(=O)O)cc1
154 to 156	OCc1nnc(S)n1C1CC1
219 to 221	CCC(C)NS(=O)(=O)c1ccc(C(=O)O)cc1 (stereo not given)
209 to 211	NNc1nc2cc(Cl)ccc2s1
113 to 115	Nc1ccc(CCC(=O)O)nc1

melting point [°C]	SMILES
90 to 92	CC(O)c1ccc(-n2cncn2)cc1 (stereo not given)
102 to 104	O=C(CCl)Nc1cccc(Oc2ccccc2)c1
130 to 132	NCC(c1ccc(Cl)cc1Cl)c1c[nH]c2ccccc12 (stereo not given)
39 to 41	Fc1cccc(F)c1-n1ccc(CCl)n1
183 to 185	Cc1cc(=O)n2nc(CCl)sc2n1
194 to 196	Cn1cc(S(N)(=O)=O)c2ccccc21
162 to 164	CN1C(=O)CC(C(=O)O)c2ccccc21 (stereo not given)
154 to 156	O=C1CCCc2cc(C(=O)CCl)ccc2N1
95 to 97	N#Cc1cc(F)cc(F)c1[N+](=O)[O-]
110 to 112	COc1ccc(CC(=O)O)cc1F
187 to 189	CC(C)=CC(=O)NCc1ccc(C(=O)O)cc1
45 to 47	CCNCC(=O)Nc1c(C)cccc1C
250 to 252	CSc1ncc(C(N)=O)c(N)n1
127 to 129	N#Cc1cc(N)ccc1Cl
172 to 174	Cc1nc(C(=O)O)c(C)s1
128 to 130	CSc1ccc(C)c(C(=O)O)c1
73 to 75	CC(C)C(C#N)NC(=O)OC(C)(C)C (stereo not given)
79 to 81	CCNC(=O)COc1cccc(C(C)N)c1 (stereo not given)
148 to 150	CC(=O)c1ccccc1NS(=O)(=O)c1ccc(C)cc1
256 to 258	Cc1cc(N)[nH]c(=O)c1
209 to 211	Cc1c[nH]c(=O)n1-c1ccccc1[N+](=O)[O-]
174 to 176	Cc1nc(-c2ccco2)ccc1C(=O)O
103 to 105	Nc1c(F)cccc1-n1cncn1
85 to 87	Nc1ccccc1C(=O)Nc1ccc2c(c1)OCO2

melting point [°C]	SMILES
234 to 236	O=C(O)c1cc(S)ccc1[N+](=O)[O-]
119 to 121	Cc1ccccc1-c1cnc(N)s1
324 to 326	Sc1nc2cc(Br)cnc2[nH]1
139 to 141	Nc1cccc(OCCc2ccccc2)c1
156 to 158	Cc1cccc(-n2nnnc2S)c1
211 to 213	Cc1nc(O)c2c(n1)CN(Cc1ccccc1)CC2
64 to 66	CNS(=O)(=O)CBr
106 to 108	CS(=O)(=O)CC(=O)c1ccccc1
195 to 197	CC(C)(C)C(=O)N1CCc2cc(C(=O)O)ccc21
131 to 133	NNS(=O)(=O)Cc1ccccc1
51 to 53	OCCOc1cncc(Br)c1
75 to 77	N#Cc1ccc(N=C=S)cc1Cl
88 to 92	Cc1cc(N)n(-c2cccc(C(F)(F)F)c2)n1
152 to 154	CS(=O)(=O)c1cc(Br)ccc1[N+](=O)[O-]
49 to 51	Cc1cc(C=O)nc(N2CCCCC2)n1
65 to 67	CC(C)(C)OC(=O)N1CC(OS(C)(=O)=O)C1
142 to 144	Cc1sc2nc(CCl)nc(Cl)c2c1C
161 to 163	NC(=O)NC(CCC(=O)O)C(=O)O (stereo not given)
278 to 280	O=C(O)c1cnc2c(c1)c(=O)[nH]c(=O)n2Cc1ccccc1
97 to 99	Nc1ccc(-c2nc(C3CC3)no2)cc1Cl
132 to 134	CCOc1ccc2c(c1)CC(C(=O)O)CO2 (stereo not given)
149 to 151	Nc1ccc(-c2nc3cccc(Cl)c3s2)cc1
35 to 37	COC(=O)CCOc1ccc(Cl)cc1Cl
44 to 46	SCc1c(Cl)cccc1Cl

melting point [°C]	SMILES
170 to 172	CN(CC(=O)O)c1ccc(C#N)cn1
104 to 106	O=C(O)c1cccc(CS)c1
169 to 171	O=C(O)Cn1ccc2ccccc21
191 to 193	Cc1nc(-c2cccs2)ccc1C(=O)O
105 to 107	Nc1ncc(Cc2cccc(Br)c2)s1
203 to 205	Cn1ccnc1SCC(=O)Nc1ccccc1C(=O)O
147 to 149	CC1C(=O)NC(=O)N1c1ccccc1 (stereo not given)
105 to 107	O=S(=O)(Cl)c1cc(Cl)cc2c1OCC2
80 to 82	COc1ccc(CCNC(=O)c2ccccc2N)cc1
214 to 216	COc1c(Cl)cc(Br)cc1S(N)(=O)=O
99 to 101	Cn1ccnc1C(=O)c1ccccc1Cl
100 to 102	Cc1cc(N)nn1-c1ccc(Cl)cc1
138 to 140	Cc1noc(C)c1COc1ccc(CC(=O)O)cc1
218 to 220	CC(O)c1nc2ncc(Br)cc2[nH]1 (stereo not given)
225 to 227	NNS(=O)(=O)c1ccc(Br)cc1
219 to 221	Nc1nnc(-c2cccc3ccccc23)[nH]1
146 to 148	Nc1nnc(Cc2cccc(F)c2)o1
126 to 128	ClCc1ccnc(-c2ccc(Br)cc2)n1
79 to 81	CC(C)NS(=O)(=O)c1ccccc1CN
118 to 120	O=C1CCc2cc3c(cc21)OCCO3
115 to 117	O=C(O)CCCCc1cccc(O)c1
139 to 141	CC(C)Sc1ccc(C(=O)O)cc1

SMILES	melting point [°C]
N#CC(c1ccc(Br)cc1)N1CCNCC1 (stereo not given)	83 to 85
O=[N+]([O-])c1ccc(N2CCNCC2)nc1	128 to 130
Cc1c(C(=O)O)cnn1CCOC1CCCCO1 (stereo not given)	139 to 141
